Molecules are shown by their SMILES.

The results in this text go back to patent publication US20260242343A1, “COMPOUND SERVING AS DDR1 KINASE INHIBITOR, AND MEDICINE” (NIPPON SHINYAKU CO., LTD., priority 2022, published 2026).

Assay [1] concerns the target T1, DDR1 protein (Homo sapiens, UniProt Q08345).
T1 construct: purchased Carna Biosciences 08-113
The experiment in a line: Evaluation of DDR1 kinase inhibitory activity (LANCE Ultra TR-FRET). It is filed as biochemical. As to conditions: DDR1 protein 0.5 nM, ATP 100 μM, 2 hours at room temperature; read-out: DDR-1 IC50. The protocol: The test was performed in duplicate.

Assay [2] has as its target T2, DDR1 kinase in DDR1-expressing U2OS cells (Homo sapiens, UniProt Q08345).
T2 construct: host or cells: U2OS
The experiment in a line: DDR1 kinase inhibitory effect in DDR1-expressing U2OS cells (PathHunter, type I collagen stimulation). The class given is cell-based. As to conditions: type I collagen 50 μg/mL, 10% FBS, read-out: DDR-1 IC50. The protocol:
Test compounds in DMSO were prepared at 10 mM and diluted with DMSO to final concentrations of 1000, 100, 10, 1, and 0.1 μM. These solutions were diluted further with E-MEM medium (Fujifilm Wako Pure Chemical Industries, 051-07615) containing 10% fetal bovine serum (FBS, Gibco, 10270106) to 60,000, 6,000, 600, 60, 6, and 0.6 nM to obtain test sample solutions.
DDR1-expressing U2OS cells (DiscoverX, 93-0894C3) suspended at 2.5×10^5 cells/mL in 10% FBS+E-MEM medium were seeded in 384-well plates (DiscoverX, 92-0013) in 20 μL portions and cultured overnight at 37° C. and 5% CO2.
The next day, the test sample solutions as prepared were added at 5 μL/well to final concentrations of 10,000, 1,000, 100, 10, 1, and 0.1 nM. After incubation at 37° C. and 5% CO2 for 1 hour, type I collagen (Nitta Gelatin, 631-00771) was added at 5 μL/well to a final concentration of 50 μg/mL, and cultured overnight at 37° C. and 5% CO2.
The next day, the plate was left at room temperature for 1 hour, after which 5 μL/well of detection solution was added according to the instruction manual for the PathHunter (registered trademark) Detection Kit (DiscoverX, 93-0001). […] The test was performed in duplicate.

T2 sequence (Q08345 19-913): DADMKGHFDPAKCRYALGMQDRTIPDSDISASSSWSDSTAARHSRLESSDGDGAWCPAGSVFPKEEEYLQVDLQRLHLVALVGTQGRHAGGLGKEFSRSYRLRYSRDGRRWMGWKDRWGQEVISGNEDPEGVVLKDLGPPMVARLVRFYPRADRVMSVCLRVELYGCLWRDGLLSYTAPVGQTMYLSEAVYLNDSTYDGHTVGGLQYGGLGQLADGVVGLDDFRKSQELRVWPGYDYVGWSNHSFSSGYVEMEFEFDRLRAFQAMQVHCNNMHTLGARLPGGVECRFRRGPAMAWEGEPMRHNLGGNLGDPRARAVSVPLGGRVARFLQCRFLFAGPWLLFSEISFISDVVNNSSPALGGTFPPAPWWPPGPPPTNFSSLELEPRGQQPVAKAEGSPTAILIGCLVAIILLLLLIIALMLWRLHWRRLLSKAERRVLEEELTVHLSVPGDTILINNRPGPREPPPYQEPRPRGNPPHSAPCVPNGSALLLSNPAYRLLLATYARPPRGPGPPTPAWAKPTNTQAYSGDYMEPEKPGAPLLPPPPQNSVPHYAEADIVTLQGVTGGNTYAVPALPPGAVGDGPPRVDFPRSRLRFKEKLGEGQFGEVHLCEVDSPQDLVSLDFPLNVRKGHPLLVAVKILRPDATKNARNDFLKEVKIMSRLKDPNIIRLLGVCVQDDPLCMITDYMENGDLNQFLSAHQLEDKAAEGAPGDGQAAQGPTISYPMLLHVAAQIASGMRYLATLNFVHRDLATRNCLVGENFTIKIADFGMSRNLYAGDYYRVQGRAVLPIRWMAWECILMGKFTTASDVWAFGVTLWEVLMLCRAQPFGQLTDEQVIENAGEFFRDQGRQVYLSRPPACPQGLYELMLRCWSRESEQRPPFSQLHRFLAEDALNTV
T1 sequence (Q08345 19-876 isoform Q08345-2 limits assumed): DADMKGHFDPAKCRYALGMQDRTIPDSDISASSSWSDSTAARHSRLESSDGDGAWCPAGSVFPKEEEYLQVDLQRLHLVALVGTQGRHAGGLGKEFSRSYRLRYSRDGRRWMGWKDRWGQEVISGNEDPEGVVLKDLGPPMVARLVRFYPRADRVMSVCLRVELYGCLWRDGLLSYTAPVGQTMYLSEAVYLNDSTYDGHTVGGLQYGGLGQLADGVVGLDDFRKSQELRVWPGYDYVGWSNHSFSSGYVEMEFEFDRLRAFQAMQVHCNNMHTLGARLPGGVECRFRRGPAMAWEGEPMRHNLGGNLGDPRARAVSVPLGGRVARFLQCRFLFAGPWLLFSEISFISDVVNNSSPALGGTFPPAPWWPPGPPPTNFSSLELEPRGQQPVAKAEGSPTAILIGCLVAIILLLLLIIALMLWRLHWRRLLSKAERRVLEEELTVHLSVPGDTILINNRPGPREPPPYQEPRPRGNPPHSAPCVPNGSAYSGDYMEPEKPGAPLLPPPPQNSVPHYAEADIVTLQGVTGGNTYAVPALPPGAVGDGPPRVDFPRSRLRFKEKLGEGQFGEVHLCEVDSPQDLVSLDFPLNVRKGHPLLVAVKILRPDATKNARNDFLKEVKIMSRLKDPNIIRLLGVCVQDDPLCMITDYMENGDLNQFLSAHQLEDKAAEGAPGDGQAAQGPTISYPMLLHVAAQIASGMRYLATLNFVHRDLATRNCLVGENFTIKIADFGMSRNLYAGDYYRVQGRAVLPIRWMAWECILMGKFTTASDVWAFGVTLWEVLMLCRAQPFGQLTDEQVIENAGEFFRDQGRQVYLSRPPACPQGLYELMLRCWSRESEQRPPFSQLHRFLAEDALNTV

Turning to `O=C(N[C@H]1C[C@H](OC(F)(F)F)C[C@@H]1O)c1ccc(OC(F)F)c(C#Cc2cncc(F)c2)c1` [Example 2, 4-(Difluoromethoxy)-3-[2-(5-fluoropyridin-3-yl)ethynyl]-N-[(1S,2S,4S)-2-hydroxy-4-(trifluoromethoxy)cyclopentyl]benzamide], the results for the half-inhibitory concentration (IC50) in assay [1] and in assay [2] were 3.6 nM and 38 nM, respectively.
For `CCc1ncc(C(=O)N[C@H]2C[C@H](OC(F)(F)F)C[C@@H]2O)cc1/C=C(\F)c1cnc(N)nc1` [Example 11, 5-[(1Z)-2-(2-Aminopyrimidin-5-yl)-2-fluoroethenyl]-6-ethyl-N-[(1S,2S,4S)-2-hydroxy-4-(trifluoromethoxy)cyclopentyl]pyridine-3-carboxamide], in that order: 22 nM and 120 nM.
For `Nc1ncc(/C=C(\F)c2cc(C(=O)N[C@H](CO)CCOC(F)(F)F)ccc2OC(F)F)cn1` [Example 12, 3-[(1Z)-2-(2-Aminopyrimidin-5-yl)-1-fluoroethenyl]-4-(difluoromethoxy)-N-[(2S)-1-hydroxy-4-(trifluoromethoxy)butan-2-yl]benzamide], in that order: 1.1 nM and 14 nM.
On to `COc1cncc(/C=C(\F)c2cc(C(=O)N[C@H]3C[C@H](OC(F)(F)F)C[C@@H]3O)cc(F)c2OC(F)F)c1` [Example 13, 4-(Difluoromethoxy)-3-fluoro-5-[(1Z)-1-fluoro-2-(5-methoxypyridin-3-yl)ethenyl]-N-[(1S,2S,4S)-2-hydroxy-4-(trifluoromethoxy)cyclopentyl]benzamide], for which the IC50 was 0.87 nM in assay [1] and 1.9 nM in assay [2].
For `NC(=O)c1ncc2cc(-c3cc(C(=O)N[C@H]4C[C@H](OC(F)(F)F)C[C@@H]4O)cnc3C(F)(F)F)ccn12` [Example 15, 5-{3-Carbamoylimidazo[1,5-a]pyridin-7-yl}-N-[(1S,2S,4S)-2-hydroxy-4-(trifluoromethoxy)cyclopentyl]-6-(trifluoromethyl)pyridine-3-carboxamide], in that order: 2.2 nM and 14 nM.
The like results for `CCc1ccc(C(=O)N[C@H]2C[C@H](OC(F)(F)F)C[C@@H]2O)cc1NC(=O)c1cnc(-c2ccccc2)o1` [Example 16, N-(2-Ethyl-5-{[(1S,2S,4S)-2-hydroxy-4-(trifluoromethoxy)cyclopentyl]carbamoyl}phenyl)-2-phenyl-1,3-oxazole-5-carboxamide] were, in that order, 7.5 nM and 13 nM.
As to `CCc1ccc(C(=O)N[C@H]2C[C@H](OC(F)(F)F)C[C@@H]2O)cc1NC(=O)c1cnc(CC2CC2)s1` [Example 17, 2-(Cyclopropylmethyl)-N-(2-ethyl-5-{[(1S,2S,4S)-2-hydroxy-4-(trifluoromethoxy)cyclopentyl]carbamoyl}phenyl)-1,3-thiazole-5-carboxamide], the IC50 in assay [1] amounted to 1.6 nM; in assay [2], 17 nM.
For `O=C(N[C@H]1CC2(CC2)C[C@@H]1O)c1ccc(OC(F)F)c(C#Cc2cncnc2)c1` [Example 18, 4-(Difluoromethoxy)-N-[(5S,6S)-6-hydroxyspiro[2.4]heptan-5-yl]-3-[2-(pyrimidin-5-yl)ethynyl]benzamide], in that order: 22 nM and 150 nM.
As for `O=C(N[C@H]1CC2(CC2)C[C@@H]1O)c1ccc(OC(F)F)c(C#Cc2cncc(F)c2)c1` [Example 19, 4-(Difluoromethoxy)-3-[2-(5-fluoropyridin-3-yl)ethynyl]-N-[(5S,6S)-6-hydroxyspiro[2.4]heptan-5-yl]benzamide], the values for the IC50 in assay [1] and in assay [2] were 3.2 nM and 27 nM, respectively.
Consider `Nc1ncc(C#Cc2cc(C(=O)N[C@H]3CC(F)(F)CC[C@@H]3O)ccc2OC(F)F)cn1` [Example 20, 3-[2-(2-Aminopyrimidin-5-yl)ethynyl]-N-[(1S,2S)-5,5-difluoro-2-hydroxycyclohexyl]-4-(difluoromethoxy)benzamide p-toluenesulfonate], for which the IC50 in assay [1] was 3.1 nM; in assay [2], 16 nM.
The like results for `Nc1ncc(C#Cc2cc(C(=O)N[C@H]3CC4(CC4)C[C@@H]3O)ccc2OC(F)F)cn1` [Example 21, 3-[2-(2-Aminopyrimidin-5-yl)ethynyl]-4-(difluoromethoxy)-N-[(5S,6S)-6-hydroxyspiro[2.4]heptan-5-yl]benzamide] were, in that order, 0.27 nM and 11 nM.
For `COc1nc(N)ncc1C#Cc1cc(C(=O)N[C@H]2CC3(CC3)C[C@@H]2O)ccc1OC(F)F` [Example 23, 3-[2-(2-Amino-4-methoxypyrimidin-5-yl)ethynyl]-4-(difluoromethoxy)-N-[(5S,6S)-6-hydroxyspiro[2.4]heptan-5-yl]benzamide], in that order: 0.25 nM and 4.1 nM.
The like results for `Cn1cc(C#Cc2cc(C(=O)N[C@H](CO)CCOC(F)(F)F)ccc2OC(F)F)cn1` [Example 24, 4-(Difluoromethoxy)-N-[(2S)-1-hydroxy-4-(trifluoromethoxy)butan-2-yl]-3-[2-(1-methyl-1H-pyrazol-4-yl)ethynyl]benzamide] were, in that order, 36 nM and 97 nM.
Turning to `Nc1cnc(/C(F)=C/c2cc(C(=O)N[C@H]3CC(F)(F)CC[C@@H]3O)ccc2OC(F)F)cn1` [Example 25, 3-[(1Z)-2-(5-Aminopyrazin-2-yl)-2-fluoroethenyl]-N-[(1S,2S)-5,5-difluoro-2-hydroxycyclohexyl]-4-(difluoromethoxy)benzamide], the IC50 stood at 1.7 nM in assay [1] and 19 nM in assay [2].
The like results for `Nc1cnc(/C(F)=C/c2cc(C(=O)N[C@H]3CC4(CC4)C[C@@H]3O)ccc2OC(F)F)cn1` [Example 26, 3-[(1Z)-2-(5-Aminopyrazin-2-yl)-2-fluoroethenyl]-4-(difluoromethoxy)-N-[(5S,6S)-6-hydroxyspiro[2.4]heptan-5-yl]benzamide] were, in that order, 5.1 nM and 20 nM.
For `NC(=O)c1ncc2cc(-c3cc(C(=O)N[C@H]4CC(F)(F)CC[C@@H]4O)ccc3C(F)(F)F)ccn12` [Example 27, 7-(5-{[(1S,2S)-5,5-Difluoro-2-hydroxycyclohexyl]carbamoyl}-2-(trifluoromethyl)phenyl)imidazo[1,5-a]pyridine-3-carboxamide], in that order: 4 nM and 10 nM.
The like results for `NC(=O)c1ncc2cc(-c3cc(C(=O)N[C@H]4CC5(CC5)C[C@@H]4O)ccc3C(F)(F)F)ccn12` [Example 28, 7-(5-{[(5S,6S)-6-Hydroxyspiro[2.4]heptan-5-yl]carbamoyl}-2-(trifluoromethyl)phenyl)imidazo[1,5-a]pyridine-3-carboxamide] were, in that order, 0.86 nM and 7.8 nM.
For the molecule `NC(=O)c1ncc2cc(-c3cc(C(=O)N[C@H]4C[C@H](OC(F)(F)F)C[C@@H]4O)ccc3C(F)(F)F)ccn12` [Example 29, 7-(5-{[(1S,2S,4S)-2-Hydroxy-4-(trifluoromethoxy)cyclopentyl]carbamoyl}-2-(trifluoromethyl)phenyl)imidazo[1,5-a]pyridine-3-carboxamide], the figures for the IC50 in assay [1] and in assay [2] were 0.81 nM and 3.1 nM, respectively.
The like results for `NC(=O)c1ncc2cc(-c3cc(C(=O)N[C@H](CO)CCOC(F)(F)F)cnc3C(F)(F)F)ccn12` [Example 30, 5-{3-Carbamoylimidazo[1,5-a]pyridin-7-yl}-N-[(2S)-1-hydroxy-4-(trifluoromethoxy)butan-2-yl]-6-(trifluoromethyl)pyridine-3-carboxamide] were, in that order, 18 nM and 78 nM.
For `NC(=O)c1ncc2cc(-c3cc(C(=O)N[C@H](CO)CCOC(F)(F)F)ccc3C(F)(F)F)ccn12` [Example 31, 7-(5-{[(2S)-1-Hydroxy-4-(trifluoromethoxy)butan-2-yl]carbamoyl}-2-(trifluoromethyl)phenyl)imidazo[1,5-a]pyridine-3-carboxamide], in that order: 2.2 nM and 5.3 nM.
For `CCc1ccc(C(=O)N[C@H](CO)CCOC(F)(F)F)cc1NC(=O)c1cncc(-c2cccc(F)c2)c1` [Example 32, N-(2-Ethyl-5-{[(2S)-1-hydroxy-4-(trifluoromethoxy)butan-2-yl]carbamoyl}phenyl)-5-(3-fluorophenyl)pyridine-3-carboxamide], in that order: 26 nM and 54 nM.
Consider `CCc1ccc(C(=O)N[C@H]2C[C@H](OC(F)(F)F)C[C@@H]2O)cc1NC(=O)c1cncc(-c2cccc(F)c2)c1` [Example 33, N-(2-Ethyl-5-{[(1S,2S,4S)-2-hydroxy-4-(trifluoromethoxy)cyclopentyl]carbamoyl}phenyl)-5-(3-fluorophenyl)pyridine-3-carboxamide], for which the IC50 stood at 1.8 nM in assay [1] and 7.4 nM in assay [2].
For `Nc1ncc(/C(F)=C/c2cc(C(=O)N[C@H](CO)c3cccc(F)c3)ccc2OC(F)F)cn1` [Example 34, 3-[(1Z)-2-(2-Aminopyrimidin-5-yl)-2-fluoroethenyl]-4-(difluoromethoxy)-N-[(1S)-1-(3-fluorophenyl)-2-hydroxyethyl]benzamide], in that order: 8.2 nM and 44 nM.
